# Experimental data reported in US10596173B2, “Combination therapy of an HBV capsid assembly inhibitor and an interferon” (Hoffmann-La Roche Inc., priority 2015, dated 2020).
# Values joined by “and” are separate entries in the source; they are usually repeats but may differ in a detail not shown here. Equal entries are not always repeated.
# Assays:
# HBV [1] = test: Combination study with Roferon in HBV infected HepaRG cells: HBV DNA in supernatant by qPCR, CalcuSyn and isobologram analysis; type: cell-based, HBV (genotype D); details: for Overall CI: average of CI at 50%, 75% and 90%; for EC50: Hepatitis B virus, HepaRG
# Procedure: HepG2.2.15 cells were cultured in DMEM+Glutamax I medium (Gibco, #21885) supplemented with 10% FBS, 1% Pen/Strep (Gibco, #15140) and G-418 ([…]) and used for production of infectious HBV (genotype D). 90% confluent cells from three T175 flasks were trypsinized and transferred into one collagen coated hyperflask (550 mL). Once the cells were confluent, medium was changed to DMEM+Glutamax I medium with 1% DMSO and 2.5% FBS. Once the cells were slightly over confluent, medium was changed to DMEM/F12+Glutamax I medium (Gibco, #31331) supplemented with MEM non-essential aminoacids (6 mL, Gibco, #11140), P/S (6 mL), sodium pyruvate (6 mL), DMSO (9 mL) and FBS (10 mL) (all per 500 mL medium). Medium was changed every 3 days and supernatants were harvested for 2 weeks. Virus was concentrated from supernatants by PEG precipitation and the titer (genome equivalent (GE)/mL) was determined by qPCR. Briefly, supernatants were mixed with 40% PEG solution at a ratio of 4:1, incubated on a shaker at 4° C. overnight and then centrifuged using 50 mL falcon tubes at 4° C. for one hour at 3724 g (RCF). The supernatant was discarded and the centrifugation step was repeated with new supernatant reusing the tubes until all PEG-precipitated supernatant was processed. The pellets were re-suspended in William's E Medium (Gibco, #22551) at a concentration of 10^7-10^9 genome equivalents (GE) per ml and frozen at −80° C. DNA copy number calculation was based on a standard curve generated from HBV plasmid dilutions with known concentrations.
# HepaRG cells (Biopredic International, Saint-Gregoire, France) were cultured in working growth medium (500 mL Willams E Medium with 50 mL HepaRG Growth supplement from Biopredic, 5 mL Glutamax-I (Gibco, #35050) and 5 mL Pen/Strep) for 2 weeks. After 2 weeks, medium was changed to differentiation medium containing 1.8% DMSO (500 mL Willams E Medium with 50 mL HepaRG Growth supplement from Biopredic, 5 mL Pen/Strep, 5 mL Glutamax-I and 9 mL DMSO). Medium was changed twice a week up to 2 weeks. Once fully differentiated, cells were trypsinized and seeded into collagenated 96-well plates (50,000 cells/well in 100 μL) or 24-well plates (300,000 cells/well in 500 μL) in differentiation medium. Cells were cultured at least 5 days in the plates before they were infected with HBV.
# The combination experimental results were analyzed using the model described by Craig et al. (Craig J, Duncan I, Whittaker L and Roberts N. (1990). Antiviral synergy between inhibitors of HIV proteinase and reverse transcriptase. Antiviral Chem. Chemother. 4:161-166). EC50 values were obtained for compounds used alone and in combination with others. To relate these two values and describe the degree of synergy/additivity/antagonism between them, the Fractional Inhibitory Concentration (FIC) was first calculated and used to generate isobolograms. Briefly, the FIC is the ratio of the EC50 of the drug in combination to the EC50 of the drug on its own: FIC=ratio[EC50combination:EC50alone]
# The Combination Index (CI), obtained by adding the FICs of the two compounds, was then used to describe the effect between compounds used in the combinations. A CI<1 means synergism, a CI=1 means additivity and a CI>1 means antagonism.
# Each experiment was performed in at least triplicate and performed independently 3 times. Mean percent inhibition of HBV replication based on DNA copy number was calculated from all experiments and analyzed using the Calcusyn software (CalcuSyn Version 2.11, Biosoft, Cambridge, UK) based on the Loewe additivity model described by Chou and Talalay (Chou T C (2006). Theoretical basis, experimental design, and computerized simulation of synergism and antagonism in drug combination studies. Pharmacol. Rev., 58:621-681). For the CalcuSyn evaluation, data from three diagonal lanes with a constant concentration ratio for the drug combinations of each lane from the checkerboard plate were used (marked in bold in Table 2). […]
# HBV [2] = details: HBV infected transgenic mouse model or humanized mouse models; cited from earlier work
# [3] = system: HBV infected HepaRG cells; test: CellTiter-Glo cell viability assay of HBV infected and treated HepaRG cells; type: cell-based; details: individual compound at maximum concentration, day 11 post infection
# Procedure: Cell viability of the HBV infected and treated HepaRG cells was determined at day 11 post infection using the CellTiter-Glo® Luminescent Cell Viability Assay (Promega, Cat. No. G7572). 100 μL of CTG reagent were added to each well of the cells, incubated for 10 min and 80 μL of each well were transferred to a new white 96 well plate. Luminescence (0.2 sec) was measured using an Envision reader (PerkinElmer).
# [4] = CalcuSyn, HBV DNA, molar ratio 1:0.3
# [5] = CalcuSyn, HBV DNA, molar ratio 1:1
# [6] = CalcuSyn, HBV DNA, molar ratio 1:3
# [7] = individual compound, HBV infected HepaRG cells, HBV DNA, mean of n independent experiments
compound,measurement,setting,value
Nc1ccn([C@@H]2CS[C@H](CO)O2)c(=O)n1 [3TC and 3TC],CI value at 50% HBV inhibition,HBV [1]; [4],1.12 ± 0.24
same,CI value at 75% HBV inhibition,HBV [1]; [4],1.05 ± 0.16
same,CI value at 90% HBV inhibition,HBV [1]; [4],1.02 ± 0.11
same,CI value at 50% HBV inhibition,HBV [1]; [5],0.98 ± 0.12
same,CI value at 75% HBV inhibition,HBV [1]; [5],1.00 ± 0.14
same,CI value at 90% HBV inhibition,HBV [1]; [5],1.06 ± 0.11
same,CI value at 50% HBV inhibition,HBV [1]; [6],1.02 ± 0.22
same,CI value at 75% HBV inhibition,HBV [1]; [6],1.03 ± 0.22
same,CI value at 90% HBV inhibition,HBV [1]; [6],1.08 ± 0.21
same,Overall CI,"HBV [1]; CalcuSyn, molar ratio 1:0.3",1.06 ± 0.16
same,Overall CI,"HBV [1]; CalcuSyn, molar ratio 1:1",1.02 ± 0.11
same,Overall CI,"HBV [1]; CalcuSyn, molar ratio 1:3",1.04 ± 0.19
same,Assessment of combination effect,"HBV [1]; CalcuSyn, based on overall CI values",additivity
COC(=O)C1=C(C)NC(c2ncc(F)cc2F)=N[C@H]1c1ccc(F)cc1Cl [Bay 41-4109],in vivo efficacy,HBV [2],demonstrated in vivo efficacy with HBV DNA reduction
"COC(=O)C1=C(CN2CCOC[C@H]2C(=O)O)N=C(c2nccs2)N[C@H]1c1ccc(F)cc1Cl [Compound 1, (S)-4-[(R)-6-(2-Chloro-4-fluoro-phenyl)-5-methoxycarbonyl-2-thiazol-2-yl-3,6-dihydro-pyrimidin-4-ylmethyl]-morpholine-3-carboxylic acid]",EC50,HBV [1]; [7],0.0212 µM
same,% cell viability at max concentration ± SD (n),[3],96.8 ± 4.2 (3) %
"Nc1ccn([C@@H]2CS[C@H](CO)O2)c(=O)n1 [Compound 3TC, Lamivudine]",EC50,HBV [1]; [7],0.0129 µM
same,% cell viability at max concentration ± SD (n),[3],86.4 ± 2.6 (3) % and 104.5 ± 2.6 (3) %
"CCOC(=O)C1=C(CN2CCN3C(=O)N(CC(C)(C)C(=O)O)C[C@@H]3C2)NC(c2nccs2)=N[C@H]1c1cccc(F)c1C [Compound 4, 3-[(8aS)-7-[[(4S)-5-ethoxycarbonyl-4-(3-fluoro-2-methyl-phenyl)-2-thiazol-2-yl-1,4-dihydropyrimidin-6-yl]methyl]-3-oxo-5,6,8,8a-tetrahydro-1H-imidazo[1,5-a]pyrazin-2-yl]-2,2-dimethyl-propanoic acid]",EC50,HBV [1]; [7],0.0087 µM
same,% cell viability at max concentration ± SD (n),[3],96.1 ± 14.5 (3) %
interferon alfa-2a [Roferon],EC50 ± SD (n),HBV [1]; [7],0.9 IU/mL ± 0.5 (3) and 1.8 IU/ml ± 1.7 (3) IU/mL
